Assay results from patent US11548860B2, “Pharmacophores, compounds and methods having application in the treatment of cancer through inhibition of CYP17A1 and CYP19A1” (MANGOSUTHU UNIVERSITY OF TECHNOLOGY, priority 2015, dated 2023).

Key:
CYP17A1 = CYP17A1 (Homo sapiens (Human), UniProt P05093); assay: CYP17A1 inhibition, CYP17A1 bactosomes, progesterone substrate, LC-MS/MS; format: biochemical; conditions: for IC50: 0.1 μM progesterone, 20 min, 37° C.; for inhibitory potency of CYP17A1, level in words: Table 2
Method: CYP17A1 inhibition was measured using 20 pmol/ml CYP17A1 bactosomes (Cypex, Dundee, UK) and 0.1 μM progesterone as a substrate and 1 mM NADPH in 50 mM potassium phosphate buffer pH 7.4 containing 5 mM magnesium chloride. Inhibitors were dissolved in DMSO and serially diluted in seven ½ log steps, final concentrations ranging from 50 μA to 50 nM. Reaction volume was 100 μl and final DMSO concentration was 1% (v/v). Reactions were started by the addition of NADPH and incubated at 37° C. for 20 minutes with shaking at 1800 rpm on a Bioshake IQ (Q-Instruments, Jena, Germany). Reactions were terminated by the addition of 200 μl methanol containing 1 μM tolbutamide as an internal standard.

CYP1A2 = CYP1A2 (Homo sapiens (Human), UniProt P05177); assay: CYP inhibition against major 5 human liver CYPs in E. coli CYPEX membranes: CYP1A2 (tacrine); format: in vitro ADME; conditions: bactosome mix, 10 min, 37° C.
Method: (§1) Test compounds and control inhibitors were prepared as stocks in DMSO from the solid compound. The stocks were diluted in 0.1 M phosphate buffer (pH 7.4) at four times the final concentration prior to addition into the incubation tubes. The final DMSO concentration was 1%. […] Catalogue number CYP/XG001, Batch XG001001). Selective and FDA accepted substrates for each isoform were used at a concentration around the Km for each substrate. Activity of each isoform was assessed by measuring the appearance of an isoform-specific metabolite. A cocktail of 5 isoform-specific inhibitors was used as a positive control. […] Reactions were stopped by addition of 100 μl MeOH/1 μM Tolbutamide (internal standard). The quenched samples were mixed thoroughly and protein precipitated at −20° C. overnight. Samples were centrifuged at 2,500×g (3,400 rpm) for 20 minutes, 4° C. The supernatants were transferred to a 96 well-plate and analysed by LC-MS/MS. […] The LC-MS/MS peak responses (CYP metabolite peak area/internal standard peak area) for each test compound or positive control inhibitor were used and the response for each sample was expressed as a percentage of an uninhibited control (DMSO incubation).

CYP2C9 = CYP2C9 (Homo sapiens (Human), UniProt P11712); assay: CYP inhibition against major 5 human liver CYPs in E. coli CYPEX membranes: CYP2C9 (diclofenac); format: in vitro ADME; conditions: bactosome mix, 10 min, 37° C.
CYP2C19 = CYP2C19 (Homo sapiens (Human), UniProt P33261); assay: CYP inhibition against major 5 human liver CYPs in E. coli CYPEX membranes: CYP2C19 ((S)-mephenytoin); format: in vitro ADME; conditions: bactosome mix, 10 min, 37° C.
Method: as §1

CYP2D6 = CYP2D6 (Homo sapiens (Human), UniProt P10635); assay: CYP inhibition against major 5 human liver CYPs in E. coli CYPEX membranes: CYP2D6 (bufuralol); format: in vitro ADME; conditions: bactosome mix, 10 min, 37° C.
Method: Test compounds and control inhibitors were prepared as stocks in DMSO from the solid compound. The stocks were diluted in 0.1 M phosphate buffer (pH 7.4) at four times the final concentration prior to addition into the incubation tubes. The final DMSO concentration was 1%. […] Catalogue number CYP/XG001, Batch XG001001). Selective and FDA accepted substrates for each isoform were used at a concentration around the Km for each substrate. Activity of each isoform was assessed by measuring the appearance of an isoform-specific metabolite. A cocktail of 5 isoform-specific inhibitors was used as a positive control. […] Reactions were stopped by addition of 100 μl MeOH/1 μM Tolbutamide (internal standard). The quenched samples were mixed thoroughly and protein precipitated at −20° C. overnight. Samples were centrifuged at 2,500×g (3,400 rpm) for 20 minutes, 4° C. The supernatants were transferred to a 96 well-plate and analysed by LC-MS/MS. The following LC-MS/MS conditions were used to analyse the 5CYP inhibition samples: • Column: Waters ACE Excel C18-AR, 50×2.1 mm, 2 μm • Mobile phase A: MilliQ water+0.1% formic acid • Mobile phase B: Methanol+0.1% formic acid • Flow rate: 0.8 ml/min The CYP activities for each test compound/positive control inhibitor at each concentration were converted to % of control activity (CA). The LC-MS/MS peak responses (CYP metabolite peak area/internal standard peak area) for each test compound or positive control inhibitor were used and the response for each sample was expressed as a percentage of an uninhibited control (DMSO incubation).

CYP3A4 = CYP3A4 (Homo sapiens (Human), UniProt P08684); assay: CYP inhibition against major 5 human liver CYPs in E. coli CYPEX membranes: CYP3A4 (midazolam); format: in vitro ADME; conditions: bactosome mix, 10 min, 37° C.
Method: as §1

Solubility in DMSO = format: physicochemical
[1] = Toxicity studies on the molecules in Table 2
[2] = test system: CYP1A2, CYP2C9, CYP2C19, CYP2D6, and CYP3A4; assay: Summary of inhibition of metabolic CYP450 isoforms (5 CYP panel); format: in vitro ADME, human; conditions: Table 2
CYP19A1 = CYP19A1 (Homo sapiens (Human), UniProt P11511); assay: CYP19A1 inhibition, CYP19/MFC High Throughput Inhibitor Screen Kit, fluorescence; format: biochemical; conditions: for IC50 values against CYP19A1, potency level in words: Table 2
Method: Test compounds and control inhibitors were prepared as stocks in either Acetonitrile or DMSO from the solid compound. Compounds were serially diluted in ½ log steps in the same solvent. CYP19A1 inhibition experiments were performed using the CYP19/MFC High Throughput Inhibitor Screen Kit (Corning). Test compounds were tested in seven concentrations: […] CYP19A1 reactions were performed in black 96 well-plates (Greiner) according to the manufacturer's instructions. […] Final organic solvent concentrations were either 4% (v/v) acetonitrile or 0.5% (v/v) Dimethyl sulfoxide. The plates were covered with self-adhesive film lids and incubated for 10 minutes at 37° C. Reactions were terminated by the addition of 75 μl Stop Solution (100 mM Tris base in acetonitrile: MilliQ water (80:20). […] The CYP activities for each test compound/positive control inhibitor at each concentration were converted to % of control activity (CA). The LC-MS/MS peak responses (CYP metabolite peak area/internal standard peak area) for each test compound or positive control inhibitor were used and the response for each sample was expressed as a percentage of an uninhibited control (DMSO incubation).

CYP17A1 and CYP19A1 = assay: Classification as Dual Inhibitor (inhibitor of both CYP17A1 and CYP19A1); conditions: inhibitors of both CYP17A1 and CYP19A1

Sequence of CYP17A1 (P05093 whole entry): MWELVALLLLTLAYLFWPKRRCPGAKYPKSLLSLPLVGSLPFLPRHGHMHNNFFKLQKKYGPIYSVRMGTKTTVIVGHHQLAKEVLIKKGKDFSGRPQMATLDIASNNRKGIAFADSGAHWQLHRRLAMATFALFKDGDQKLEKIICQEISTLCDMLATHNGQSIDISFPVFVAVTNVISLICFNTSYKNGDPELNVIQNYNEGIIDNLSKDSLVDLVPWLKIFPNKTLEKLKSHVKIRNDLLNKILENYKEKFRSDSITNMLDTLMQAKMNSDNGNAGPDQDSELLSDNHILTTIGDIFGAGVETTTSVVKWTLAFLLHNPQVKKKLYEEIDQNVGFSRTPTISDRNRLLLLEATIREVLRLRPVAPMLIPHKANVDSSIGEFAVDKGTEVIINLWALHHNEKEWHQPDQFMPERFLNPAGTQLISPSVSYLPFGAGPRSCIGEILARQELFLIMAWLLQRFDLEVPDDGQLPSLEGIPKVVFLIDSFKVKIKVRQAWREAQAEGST
Sequence of CYP2D6 (P10635 whole entry, canonical isoform): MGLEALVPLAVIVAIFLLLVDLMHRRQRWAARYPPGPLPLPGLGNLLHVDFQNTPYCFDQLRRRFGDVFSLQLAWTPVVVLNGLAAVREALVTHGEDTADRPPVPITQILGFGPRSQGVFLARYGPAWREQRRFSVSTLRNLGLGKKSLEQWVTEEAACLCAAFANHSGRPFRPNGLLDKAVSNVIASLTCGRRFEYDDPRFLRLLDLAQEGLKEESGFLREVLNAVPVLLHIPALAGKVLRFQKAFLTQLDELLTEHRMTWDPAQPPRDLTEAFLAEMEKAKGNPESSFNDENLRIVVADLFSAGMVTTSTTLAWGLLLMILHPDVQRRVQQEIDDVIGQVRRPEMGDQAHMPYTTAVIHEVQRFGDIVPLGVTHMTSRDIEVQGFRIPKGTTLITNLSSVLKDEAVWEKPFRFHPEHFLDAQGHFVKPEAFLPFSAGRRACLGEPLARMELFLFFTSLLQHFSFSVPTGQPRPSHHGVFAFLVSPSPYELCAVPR
Sequence of CYP19A1 (P11511 whole entry): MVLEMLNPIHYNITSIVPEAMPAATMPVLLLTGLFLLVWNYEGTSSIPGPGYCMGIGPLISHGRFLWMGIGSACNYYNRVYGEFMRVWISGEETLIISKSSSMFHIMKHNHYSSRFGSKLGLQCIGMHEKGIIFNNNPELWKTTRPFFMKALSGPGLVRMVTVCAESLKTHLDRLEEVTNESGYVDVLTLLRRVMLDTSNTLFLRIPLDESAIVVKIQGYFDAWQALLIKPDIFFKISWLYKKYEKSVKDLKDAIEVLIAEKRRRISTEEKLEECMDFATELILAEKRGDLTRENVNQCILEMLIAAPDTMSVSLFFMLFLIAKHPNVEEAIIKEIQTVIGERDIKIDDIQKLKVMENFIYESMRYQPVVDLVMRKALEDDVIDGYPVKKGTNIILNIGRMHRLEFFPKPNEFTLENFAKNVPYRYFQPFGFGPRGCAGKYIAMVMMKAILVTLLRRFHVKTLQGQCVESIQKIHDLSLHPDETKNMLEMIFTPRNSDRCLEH
Sequence of CYP1A2 (P05177 whole entry, canonical isoform): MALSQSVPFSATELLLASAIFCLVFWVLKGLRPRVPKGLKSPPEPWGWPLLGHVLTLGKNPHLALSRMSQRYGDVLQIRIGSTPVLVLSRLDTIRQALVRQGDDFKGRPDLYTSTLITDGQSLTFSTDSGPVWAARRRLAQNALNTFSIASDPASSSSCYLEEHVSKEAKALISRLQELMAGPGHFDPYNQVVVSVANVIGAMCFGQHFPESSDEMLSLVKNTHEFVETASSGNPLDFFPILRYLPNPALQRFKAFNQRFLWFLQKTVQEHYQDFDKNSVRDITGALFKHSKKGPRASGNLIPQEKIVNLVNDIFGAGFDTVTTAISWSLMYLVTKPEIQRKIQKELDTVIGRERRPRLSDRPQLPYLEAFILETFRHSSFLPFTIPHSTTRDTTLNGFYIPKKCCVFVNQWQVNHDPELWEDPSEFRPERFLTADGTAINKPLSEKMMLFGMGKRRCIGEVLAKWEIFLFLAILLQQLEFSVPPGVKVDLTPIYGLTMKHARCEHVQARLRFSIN
Sequence of CYP3A4 (P08684 whole entry): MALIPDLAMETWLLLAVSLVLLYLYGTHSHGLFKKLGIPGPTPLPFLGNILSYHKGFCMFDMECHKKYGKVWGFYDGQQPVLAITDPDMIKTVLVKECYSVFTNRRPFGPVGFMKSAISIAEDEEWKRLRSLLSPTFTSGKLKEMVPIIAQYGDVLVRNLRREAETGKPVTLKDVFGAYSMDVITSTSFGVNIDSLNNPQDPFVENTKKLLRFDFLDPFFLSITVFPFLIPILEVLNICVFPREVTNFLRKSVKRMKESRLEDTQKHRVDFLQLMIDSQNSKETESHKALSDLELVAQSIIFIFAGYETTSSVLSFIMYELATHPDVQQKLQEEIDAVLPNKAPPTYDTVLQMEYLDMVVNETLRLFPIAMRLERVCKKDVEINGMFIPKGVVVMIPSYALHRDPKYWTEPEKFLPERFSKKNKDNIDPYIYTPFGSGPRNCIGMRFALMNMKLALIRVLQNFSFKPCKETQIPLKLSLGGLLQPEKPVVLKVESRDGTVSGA
Sequence of CYP2C19 (P33261 whole entry): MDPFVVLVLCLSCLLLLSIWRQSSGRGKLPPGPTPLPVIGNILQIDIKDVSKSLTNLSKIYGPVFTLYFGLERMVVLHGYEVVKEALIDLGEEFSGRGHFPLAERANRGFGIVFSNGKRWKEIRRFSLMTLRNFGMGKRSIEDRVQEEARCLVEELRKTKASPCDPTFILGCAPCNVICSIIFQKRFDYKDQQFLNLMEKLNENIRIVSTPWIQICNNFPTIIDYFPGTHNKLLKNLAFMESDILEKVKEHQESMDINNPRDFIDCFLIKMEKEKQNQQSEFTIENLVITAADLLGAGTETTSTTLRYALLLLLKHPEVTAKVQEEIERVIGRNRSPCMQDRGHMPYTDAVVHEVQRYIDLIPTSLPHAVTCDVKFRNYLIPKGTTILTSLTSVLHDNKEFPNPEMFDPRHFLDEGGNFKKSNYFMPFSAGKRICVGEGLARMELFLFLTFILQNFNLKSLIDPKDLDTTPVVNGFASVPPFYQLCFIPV
Sequence of CYP2C9 (P11712 whole entry): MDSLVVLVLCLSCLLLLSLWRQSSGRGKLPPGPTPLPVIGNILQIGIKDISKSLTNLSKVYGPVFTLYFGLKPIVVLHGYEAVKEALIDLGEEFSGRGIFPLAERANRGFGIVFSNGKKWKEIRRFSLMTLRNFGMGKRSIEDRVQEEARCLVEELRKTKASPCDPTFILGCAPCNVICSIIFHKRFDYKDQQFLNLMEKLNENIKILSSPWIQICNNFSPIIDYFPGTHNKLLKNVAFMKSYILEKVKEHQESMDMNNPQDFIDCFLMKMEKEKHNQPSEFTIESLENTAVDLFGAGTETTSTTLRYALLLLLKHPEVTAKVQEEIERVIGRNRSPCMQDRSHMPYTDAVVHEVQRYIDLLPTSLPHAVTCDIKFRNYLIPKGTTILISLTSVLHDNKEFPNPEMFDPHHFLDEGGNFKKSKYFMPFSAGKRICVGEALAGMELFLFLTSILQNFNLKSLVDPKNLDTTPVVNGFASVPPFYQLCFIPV

| IC50 (CYP2D6) [µM] | Structure (SMILES) | IC50 (CYP17A1) [µM] | inhibitory potency of CYP17A1, level in words (CYP17A1) | IC50 (CYP1A2) [µM] | IC50 (CYP2C9) [µM] | IC50 (CYP2C19) [µM] | IC50 (CYP3A4) [µM] | Soluble in DMSO (Solubility in DMSO) | safety profile [1] | inhibition of various CYP450 isoforms (drug-drug interaction) [2] | IC50 values against CYP19A1, potency level in words (CYP19A1) | Dual Inhibitor classification (CYP17A1 and CYP19A1) | IC50 (CYP19A1; 25 μM MFC, 10 min, 37° C.) [µM] |
| --- | --- | --- | --- | --- | --- | --- | --- | --- | --- | --- | --- | --- | --- |
| > 50 | CCCC(=O)Nc1ccc(C(=O)C(C)OC(=O)c2n[nH]c3ccccc23)cc1 (racemic) [Compound 6, 1-(4-butanamidophenyl)-1-oxopropan-2-yl-1H-indazole-3-carboxylate] | > 50 | micromolar levels | > 50 | 2.5 | 41.2 | > 50 | Yes | excellent safety profiles |  |  |  |  |
| 3.3 | Cc1cccc(C(=O)OCCOc2ccc(S(N)(=O)=O)cc2)c1N [Compound 4, 2-(4-sulfamoylphenoxy) ethyl 2-amino-3-methylbenzoate] |  |  |  |  |  |  | Yes | reasonably good safety profiles | inhibit various CYP450 isoforms |  |  |  |
|  | O=C1COc2cc(NCc3cccc(NC(=O)c4ccccc4Cl)c3)c(Cl)cc2N1 [Compound 7, 2-chloro-N-(3-{[(6-chloro-3-oxo-3,4-dihydro-2H-1,4-benzoxazin-7-yl)amino]methyl}phenyl)benzamide] |  | micromolar levels |  |  |  |  | Yes | excellent safety profiles |  | sub-micromolar inhibitory potency levels | Dual Inhibitors |  |
|  | O=C1COc2cc(NCc3cccc(C(=O)Nc4cccnc4)c3)ccc2N1 [Compound 10, 3-{[(3-oxo-3,4-dihydro-2H-1,4-benzoxazin-7-yl)amino]methyl}-N-(pyridin-3-yl)benzamide] |  | micromolar levels |  |  |  |  | Yes | excellent safety profiles |  | sub-micromolar inhibitory potency levels | Dual Inhibitors |  |
|  | O=C1COc2cc(NCc3cccc(C(=O)Nc4cccnc4)c3)c(Cl)cc2N1 [Compound 13, 3-{[(6-chloro-3-oxo-3,4-dihydro-2H-1,4-benzoxazin-7-yl)amino]methyl}-N-(pyridin-3-yl)benzamide] |  |  |  |  |  |  | Yes | reasonably good safety profiles | inhibit various CYP450 isoforms | sub-micromolar inhibitory potency levels | Dual Inhibitors |  |

| Structure (SMILES) | IC50 (CYP2D6) [µM] | IC50 (CYP17A1) [µM] | inhibitory potency of CYP17A1, level in words (CYP17A1) | IC50 (CYP1A2) [µM] | IC50 (CYP2C9) [µM] | IC50 (CYP2C19) [µM] | IC50 (CYP3A4) [µM] | Soluble in DMSO (Solubility in DMSO) | safety profile [1] | inhibition of various CYP450 isoforms (drug-drug interaction) [2] | IC50 values against CYP19A1, potency level in words (CYP19A1) | Dual Inhibitor classification (CYP17A1 and CYP19A1) | IC50 (CYP19A1; 25 μM MFC, 10 min, 37° C.) [µM] |
| --- | --- | --- | --- | --- | --- | --- | --- | --- | --- | --- | --- | --- | --- |
| O=C1COc2cc(NC(=O)c3cc(NC(=O)c4cn[nH]c4)ccc3Cl)ccc2N1 [Compound 12, N-{4-chloro-3-[(3-oxo-3,4-dihydro-2H-1,4-benzoxazin-7-yl)carbamoyl]phenyl}-1H-pyrazole-4-carboxamide] | > 50 | > 50 |  | > 50 | 22.5 | > 50 | 18.3 | Yes | excellent safety profiles |  | sub-micromolar inhibitory potency levels | Dual Inhibitors | 0.06 |
